Results on two compounds are retold here after US5373012A, “5-fluoro-2,4,6-pyrimidinetriamine compounds” (The Upjohn Company, priority 1993, dated 1994).

Several values for one entry are separate records, joined by “and”; a condition that tells them apart may be missing. Equal values may be shown once.

A short description of series [1]: transdermal absorption: urinary excretion of drug after topical application in rats. It is filed as in vivo. The conditions noted are these: for AVERAGE of total micrograms excreted: average of three rats, urine over 24 hours on fifth day; for AVERAGE of total micrograms excreted / TOTAL MICROGRAMS EXCRETED: 50/30/20 propylene glycol/ethanol/water; for TOTAL MICROGRAMS EXCRETED: individual rats 1-3, urine over 24 hours on fifth day after four days topical treatment. On the procedure: The ability of the 5-fluoro minoxidil to be absorbed in transdermal applications was measured versus minoxidil as a control. Three rats were treated with each compound for four days and on the fifth day their urine was collected over a 24 hour period. The urine was then analyzed for drug levels and converted to micrograms urine excreted per 24 hours. The compounds were administered in a 50/30/20 propylene glycol/ethanol/water vehicle.

A short description of series [2]: in vivo hair growth assay using rats (shaved hair weighed every seven days). The conditions noted are these: for Hair Growth: mean. The procedure:
The 5-fluoro minoxidil compounds were evaluated for hair growth in an in vivo hair growth assay using rats. Each rat is dosed with vehicle and drug, 200-500 microliters per day, 5 days per week. Every seven days the treated areas are shaved and the hair removed is weighed to compare normal untreated hair growth to the drug treated hair growth.

A short description of series [3]: cardiovascular effects in vivo in conscious beagle dogs (mean arterial pressure, heart rate). The conditions noted are these: 1.5 mg/kg; N=1; FIG. 2; 5-fluoro minoxidil compared to minoxidil. On the procedure:
The 5-fluoro minoxidil compounds were evaluated for cardiovascular effects in an in vivo test with beagle dogs. This test procedure is described in Humprey SJ, Zins GR, Whole Body and Regional Hemodynamic Effects of Minoxidil in the Conscious Dog, J. Card, Pharm. 6:979-88 (1984) and in Humprey, S.J., Zins, G.R., The Effects of Indomethacin on the Systemic and Regional Vasodilator Responses to Minoxidil in the Conscious Dog, Chem. Path. & Pharm. 59:1 3-20 (1988). Experiments were conducted using a radiolabeled tracer microspheres technique, Wagner NH et al., Studies of the Circulation with Radioactive Microspheres, Invest. Radiol. 4:374-86 (1969), with conscious beagle dogs. The results of a rapid evaluation (N=1) of the 5-fluoro minoxidil compound compared to minoxidil are presented in FIG. 1 change in Mean Arterial Pressure versus Time at the doses indicated and FIG. 2 Changes in Heart Rate versus Time at the doses indicated.

A short description of series [4]: hair growth in stumptail macaque monkeys (balding scalp, hair weight change from baseline). It is filed as in vivo, stumptail macaque (Macaca specoisa) monkeys. The following applies: Table III; topical 100 mM in 50% propylene glycol/50% ethanol, sixteen weeks; vehicle -1.8 ± 2.7; mean±SEM. On the procedure:
The 5-fluoro minoxidil compounds were evaluated in the macaque monkey models and show significant hair growth results.
Thirteen stumptail macaque (Macaca specoisa) monkeys (mixed sexes) were assigned to vehicle control and drug treated groups on the basis of baseline hair weight data.
1. Topical 50:50 vehicle (N=7)
The control consisted of 50% propylene glycol, 50% ethanol. The experimental composition consisted of a 100 mM concentration of topical 5-fluoro minoxidil formulated in the control vehicle. Immediately prior to the dosing phase of the study, hair was removed from a 1 inch square area (identified by four tattoos) in the center of the balding scalp. This hair collection was the baseline hair growth determination prior to the beginning of treatment. Approximately 250 μL of vehicle or 100 mM 5-fluoro minoxidil (prepared in vehicle)were topically administered to the tattooed area of the scalp. The monkeys were dosed once per day, five days per week for sixteen weeks.
At four week intervals throughout the dosing phase of the study, each monkey was shaved and the hair was collected and weighed. The body weight data (at baseline and during assay) were analyzed by the nonparametric Wilcoxon rank-sum test. Differences were significant at p<0.05. The hair weight data (mean±SEM) at each 4 week collection for vehicle and treatment groups were expressed as the change from baseline. […]

With `Nc1cc(N2CCCCC2)nc(N)[n+]1[O-]` [Minoxidil, reference compound], in series [1], the “AVERAGE of total micrograms excreted” value was determined as 454 MICROGRAMS; the “TOTAL MICROGRAMS EXCRETED” value was 354 MICROGRAMS and 358 MICROGRAMS and 651 MICROGRAMS. Moreover, the “statistical difference (p) between the two agents in level of hair growth stimulation” value in series [2] (100 mM minoxidil vs 25 mM 5-fluoro-minoxidil) is “no statistical difference”. In series [2] (Table II, 100 mM minoxidil in 100% PG (propylene glycol), 100% PG alone +0.487), the “Hair Growth” value is “+1.065 mg/in^2 /day”. Further, the “change in Heart Rate” value in series [3] was “increases in heart rate”.

Take `Nc1nc(N2CCCCC2)c(F)c(N)[n+]1[O-]` [5-fluoro minoxidil, 5-Fluoro-6-piperidinyl-2,4-pyrimidinediamine, 3-Oxide]: in series [4], the “Hair Growth (cumulative change in hair weight from baseline)” value is “+14.8 ± 3.1 mg”. For the same compound, the “AVERAGE of total micrograms excreted” value in series [1] was 1427 MICROGRAMS. In addition, the “transdermal transport properties versus unsubstituted minoxidil” value in series [1] (in words) is listed as “superior transdermal transport properties over unsubstituted minoxidil”. In series [1], the “TOTAL MICROGRAMS EXCRETED” value is 1229 MICROGRAMS and 1132 MICROGRAMS and 1921 MICROGRAMS. Besides, the absorption versus minoxidil result in series [1] (transdermal, rats, in words) is recorded as “superior absorption over the minoxidil control”. Besides, the “Hair Growth” value is “+0.609 ± 0.083 mg/in^2 /day” in series [2] (Table I, 1 mM, topical, vehicle 50/30/20 propylene glycol/ethanol/water, vehicle +0.527 ± 0.081); “+0.760 ± 0.153 mg/in^2 /day” in series [2] (Table I, 5 mM, topical, vehicle 50/30/20 propylene glycol/ethanol/water, vehicle +0.527 ± 0.081); “+0.952 ± 0.149 mg/in^2 /day” in series [2] (Table I, 25 mM, topical, vehicle 50/30/20 propylene glycol/ethanol/water, vehicle +0.527 ± 0.081); “+0.938 mg/in^2 /day” in series [2] (Table II, 25 mM 5-fluoro-minoxidil in 50/30/20 propylene glycol/ethanol/water, vehicle +0.528).
